Test results published in the kinase profiling compilation of Christmann-Franck et al. (2016).

Experiments:
MAPK9 (human) = MAPK9 (human) (UniProt P45984); experiment: radiometric filter-binding kinase assay
MAP3K9 (human) = MAP3K9 (human) (UniProt P80192); experiment: radiometric filter-binding kinase assay
EPHB2 (human) = EPHB2 (human) (UniProt P29323); experiment: radiometric filter-binding kinase assay
RIPK2 (human) = RIPK2 (human) (UniProt O43353); experiment: radiometric filter-binding kinase assay
EPHB4 (human) = EPHB4 (human) (UniProt P54760); experiment: radiometric filter-binding kinase assay
MAPK10 (human) = MAPK10 (human) (UniProt P53779); experiment: radiometric filter-binding kinase assay
FLT1 (human) = FLT1 (human) (UniProt P17948); experiment: radiometric filter-binding kinase assay
ERBB4 (human) = ERBB4 (human) (UniProt Q15303); experiment: radiometric filter-binding kinase assay
BMPR1B (human) = BMPR1B (human) (UniProt O00238); experiment: KINOMEscan competition binding
DYRK2 (human) = DYRK2 (human) (UniProt Q92630); experiment: KINOMEscan competition binding
STK38 (human) = STK38 (human) (UniProt Q15208); experiment: KINOMEscan competition binding
LIMK2 (human) = LIMK2 (human) (UniProt P53671); experiment: KINOMEscan competition binding
SRC (human) = SRC (human) (UniProt P12931); experiment: KINOMEscan competition binding
AURKA (human) = AURKA (human) (UniProt O14965); experiment: KINOMEscan competition binding
EPHA6 (human) = EPHA6 (human) (UniProt Q9UF33); experiment: KINOMEscan competition binding
TLK2 (human) = TLK2 (human) (UniProt Q86UE8); experiment: KINOMEscan competition binding
[1] = system: EGFR (human), P00533 [G719C]; experiment: KINOMEscan competition binding
CSNK1E (human) = CSNK1E (human) (UniProt P49674)
DDR1 (human) = DDR1 (human) (UniProt Q08345)
KIT (human) = KIT (human) (UniProt P10721)
CSNK1G2 (human) = CSNK1G2 (human) (UniProt P78368)
PDGFRB (human) = PDGFRB (human) (UniProt P09619)
[2] = target: AKT2 (human), P31751 [S474D]; experiment: radiometric filter-binding kinase assay
CaMK1 (human) = CaMK1 (human) (UniProt Q14012); experiment: radiometric filter-binding kinase assay
AKT3 (human) = AKT3 (human) (UniProt Q9Y243)
SLK (human) = SLK (human) (UniProt Q9H2G2)
AKT1 (human) = AKT1 (human) (UniProt P31749)
YES1 (human) = YES1 (human) (UniProt P07947); experiment: radiometric filter-binding kinase assay
HIPK4 (human) = HIPK4 (human) (UniProt Q8NE63)
PRKX (human) = PRKX (human) (UniProt P51817)
MKNK2 (human) = MKNK2 (human) (UniProt Q9HBH9)
CSF1R (human) = CSF1R (human) (UniProt P07333)
IRAK1 (human) [3] = target: IRAK1 (human) (UniProt P51617); experiment: radiometric filter-binding kinase assay
NUAK1 (human) = NUAK1 (human) (UniProt O60285); experiment: radiometric filter-binding kinase assay
CLK2 (human) = CLK2 (human) (UniProt P49760); experiment: radiometric filter-binding kinase assay
GCK (human) = GCK (human) (UniProt Q12851); experiment: radiometric filter-binding kinase assay
MAPK15 (human) = MAPK15 (human) (UniProt Q8TD08); experiment: radiometric filter-binding kinase assay
JAK2 JH1 JH2 (human) = JAK2 JH1 JH2 (human) (UniProt O60674); experiment: radiometric filter-binding kinase assay
CSNK2A1 (human) = CSNK2A1 (human) (UniProt P68400); experiment: radiometric filter-binding kinase assay
HIPK1 (human) [4] = target: HIPK1 (human) (UniProt Q86Z02); experiment: radiometric filter-binding kinase assay
IRAK1 (human) [5] = target: IRAK1 (human) (UniProt P51617)
HIPK1 (human) [6] = target: HIPK1 (human) (UniProt Q86Z02)

AURKA (human), sequence (O14965 whole entry, looked up): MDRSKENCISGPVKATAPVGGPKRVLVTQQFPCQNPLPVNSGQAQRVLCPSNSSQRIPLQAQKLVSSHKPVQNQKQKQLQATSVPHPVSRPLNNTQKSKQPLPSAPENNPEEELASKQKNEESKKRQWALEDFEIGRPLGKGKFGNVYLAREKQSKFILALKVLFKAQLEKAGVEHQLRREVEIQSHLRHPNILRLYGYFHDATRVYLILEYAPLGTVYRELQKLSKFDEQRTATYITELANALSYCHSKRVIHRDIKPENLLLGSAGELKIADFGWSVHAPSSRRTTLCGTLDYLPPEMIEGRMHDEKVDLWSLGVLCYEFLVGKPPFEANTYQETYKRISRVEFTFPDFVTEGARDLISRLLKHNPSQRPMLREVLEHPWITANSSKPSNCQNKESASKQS
LIMK2 (human), sequence (P53671 whole entry, looked up): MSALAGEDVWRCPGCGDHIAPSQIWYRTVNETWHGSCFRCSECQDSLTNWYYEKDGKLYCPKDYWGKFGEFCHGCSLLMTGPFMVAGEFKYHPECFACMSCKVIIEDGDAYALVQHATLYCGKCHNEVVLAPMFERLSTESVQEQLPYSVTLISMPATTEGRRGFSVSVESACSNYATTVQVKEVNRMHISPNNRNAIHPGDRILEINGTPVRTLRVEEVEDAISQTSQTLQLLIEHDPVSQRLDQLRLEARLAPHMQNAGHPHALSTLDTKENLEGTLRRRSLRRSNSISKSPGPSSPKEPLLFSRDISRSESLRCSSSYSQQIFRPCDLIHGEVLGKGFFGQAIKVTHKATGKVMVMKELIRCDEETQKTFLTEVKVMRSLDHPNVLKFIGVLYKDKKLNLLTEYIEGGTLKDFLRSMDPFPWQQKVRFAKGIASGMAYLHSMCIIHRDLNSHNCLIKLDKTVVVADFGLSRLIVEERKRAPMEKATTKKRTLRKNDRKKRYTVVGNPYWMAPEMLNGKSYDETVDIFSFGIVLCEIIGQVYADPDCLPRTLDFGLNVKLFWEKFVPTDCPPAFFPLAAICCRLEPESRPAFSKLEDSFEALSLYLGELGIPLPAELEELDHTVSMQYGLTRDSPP
STK38 (human), sequence (Q15208 whole entry, looked up): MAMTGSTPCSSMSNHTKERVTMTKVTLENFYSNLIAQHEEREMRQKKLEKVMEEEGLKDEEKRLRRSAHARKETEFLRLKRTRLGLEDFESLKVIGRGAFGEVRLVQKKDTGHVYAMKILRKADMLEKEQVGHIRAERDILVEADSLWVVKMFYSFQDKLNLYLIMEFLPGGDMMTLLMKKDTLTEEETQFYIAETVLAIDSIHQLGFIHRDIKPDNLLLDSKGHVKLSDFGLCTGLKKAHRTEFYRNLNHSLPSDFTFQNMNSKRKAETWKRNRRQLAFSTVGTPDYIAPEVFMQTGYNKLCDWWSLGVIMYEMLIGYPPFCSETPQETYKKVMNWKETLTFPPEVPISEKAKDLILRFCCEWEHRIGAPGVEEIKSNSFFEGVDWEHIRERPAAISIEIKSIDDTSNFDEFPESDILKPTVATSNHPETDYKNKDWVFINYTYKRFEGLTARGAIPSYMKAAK
TLK2 (human), sequence (Q86UE8 whole entry, looked up): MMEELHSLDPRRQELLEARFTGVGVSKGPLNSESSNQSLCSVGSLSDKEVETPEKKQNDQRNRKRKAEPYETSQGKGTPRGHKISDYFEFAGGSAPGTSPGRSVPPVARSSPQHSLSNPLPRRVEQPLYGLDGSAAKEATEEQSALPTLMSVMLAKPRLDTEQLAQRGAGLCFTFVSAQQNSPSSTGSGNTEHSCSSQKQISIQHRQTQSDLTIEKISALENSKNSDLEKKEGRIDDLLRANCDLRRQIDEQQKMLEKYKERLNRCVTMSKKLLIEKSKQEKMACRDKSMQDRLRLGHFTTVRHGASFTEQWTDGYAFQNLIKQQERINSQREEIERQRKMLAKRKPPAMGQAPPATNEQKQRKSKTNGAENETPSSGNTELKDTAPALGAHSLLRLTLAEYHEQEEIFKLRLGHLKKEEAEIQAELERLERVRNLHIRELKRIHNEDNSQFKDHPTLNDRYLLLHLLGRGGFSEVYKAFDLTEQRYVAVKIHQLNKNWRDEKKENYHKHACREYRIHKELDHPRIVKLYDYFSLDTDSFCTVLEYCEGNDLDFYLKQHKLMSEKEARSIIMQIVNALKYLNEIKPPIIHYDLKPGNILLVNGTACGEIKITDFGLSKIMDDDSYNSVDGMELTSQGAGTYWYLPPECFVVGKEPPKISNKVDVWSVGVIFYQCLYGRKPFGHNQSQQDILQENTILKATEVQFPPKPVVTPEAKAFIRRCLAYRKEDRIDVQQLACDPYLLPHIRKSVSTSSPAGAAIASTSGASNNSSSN
EPHA6 (human), sequence (Q9UF33 whole entry, looked up): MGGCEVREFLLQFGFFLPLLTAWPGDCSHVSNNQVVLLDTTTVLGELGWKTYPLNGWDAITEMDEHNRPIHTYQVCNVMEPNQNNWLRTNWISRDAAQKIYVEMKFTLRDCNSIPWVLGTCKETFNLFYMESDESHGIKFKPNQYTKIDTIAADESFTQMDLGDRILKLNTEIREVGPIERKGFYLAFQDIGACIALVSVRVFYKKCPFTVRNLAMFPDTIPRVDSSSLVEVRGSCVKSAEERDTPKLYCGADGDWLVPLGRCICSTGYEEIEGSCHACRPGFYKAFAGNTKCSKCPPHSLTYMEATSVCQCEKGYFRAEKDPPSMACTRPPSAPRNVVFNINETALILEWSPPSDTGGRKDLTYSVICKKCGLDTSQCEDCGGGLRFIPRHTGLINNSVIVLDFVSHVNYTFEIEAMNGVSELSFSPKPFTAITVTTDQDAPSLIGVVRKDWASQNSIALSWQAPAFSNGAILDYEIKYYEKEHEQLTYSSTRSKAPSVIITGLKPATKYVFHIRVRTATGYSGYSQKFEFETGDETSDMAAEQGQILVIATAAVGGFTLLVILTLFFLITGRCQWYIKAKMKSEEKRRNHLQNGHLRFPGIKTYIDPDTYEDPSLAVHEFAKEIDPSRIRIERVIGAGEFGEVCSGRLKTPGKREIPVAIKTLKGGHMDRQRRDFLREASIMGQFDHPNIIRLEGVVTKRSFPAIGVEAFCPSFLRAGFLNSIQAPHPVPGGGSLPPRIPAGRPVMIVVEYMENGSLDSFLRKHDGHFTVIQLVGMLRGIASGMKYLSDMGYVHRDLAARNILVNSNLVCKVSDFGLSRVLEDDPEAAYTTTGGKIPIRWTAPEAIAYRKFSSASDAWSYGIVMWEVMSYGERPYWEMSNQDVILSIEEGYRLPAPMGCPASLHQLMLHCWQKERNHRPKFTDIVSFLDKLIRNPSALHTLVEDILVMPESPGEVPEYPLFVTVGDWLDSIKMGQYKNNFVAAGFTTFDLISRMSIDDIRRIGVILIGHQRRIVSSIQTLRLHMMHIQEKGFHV
DYRK2 (human), sequence (Q92630 whole entry, looked up): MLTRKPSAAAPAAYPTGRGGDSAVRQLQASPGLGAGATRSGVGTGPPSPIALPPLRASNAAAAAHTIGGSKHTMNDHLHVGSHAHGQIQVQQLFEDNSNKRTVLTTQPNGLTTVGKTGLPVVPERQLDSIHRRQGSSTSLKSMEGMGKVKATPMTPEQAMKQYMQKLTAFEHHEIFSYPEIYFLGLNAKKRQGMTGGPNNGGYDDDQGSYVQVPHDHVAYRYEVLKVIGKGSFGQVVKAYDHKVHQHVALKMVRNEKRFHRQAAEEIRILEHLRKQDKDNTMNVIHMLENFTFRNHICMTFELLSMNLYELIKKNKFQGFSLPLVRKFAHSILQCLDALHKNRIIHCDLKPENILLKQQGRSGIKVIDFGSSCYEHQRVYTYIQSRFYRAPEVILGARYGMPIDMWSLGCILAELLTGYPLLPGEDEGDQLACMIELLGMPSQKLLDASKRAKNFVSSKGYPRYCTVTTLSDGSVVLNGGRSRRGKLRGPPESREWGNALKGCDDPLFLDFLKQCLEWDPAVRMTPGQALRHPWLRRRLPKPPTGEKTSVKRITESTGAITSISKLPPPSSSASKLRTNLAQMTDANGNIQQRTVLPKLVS
KIT (human), sequence (P10721 whole entry, looked up): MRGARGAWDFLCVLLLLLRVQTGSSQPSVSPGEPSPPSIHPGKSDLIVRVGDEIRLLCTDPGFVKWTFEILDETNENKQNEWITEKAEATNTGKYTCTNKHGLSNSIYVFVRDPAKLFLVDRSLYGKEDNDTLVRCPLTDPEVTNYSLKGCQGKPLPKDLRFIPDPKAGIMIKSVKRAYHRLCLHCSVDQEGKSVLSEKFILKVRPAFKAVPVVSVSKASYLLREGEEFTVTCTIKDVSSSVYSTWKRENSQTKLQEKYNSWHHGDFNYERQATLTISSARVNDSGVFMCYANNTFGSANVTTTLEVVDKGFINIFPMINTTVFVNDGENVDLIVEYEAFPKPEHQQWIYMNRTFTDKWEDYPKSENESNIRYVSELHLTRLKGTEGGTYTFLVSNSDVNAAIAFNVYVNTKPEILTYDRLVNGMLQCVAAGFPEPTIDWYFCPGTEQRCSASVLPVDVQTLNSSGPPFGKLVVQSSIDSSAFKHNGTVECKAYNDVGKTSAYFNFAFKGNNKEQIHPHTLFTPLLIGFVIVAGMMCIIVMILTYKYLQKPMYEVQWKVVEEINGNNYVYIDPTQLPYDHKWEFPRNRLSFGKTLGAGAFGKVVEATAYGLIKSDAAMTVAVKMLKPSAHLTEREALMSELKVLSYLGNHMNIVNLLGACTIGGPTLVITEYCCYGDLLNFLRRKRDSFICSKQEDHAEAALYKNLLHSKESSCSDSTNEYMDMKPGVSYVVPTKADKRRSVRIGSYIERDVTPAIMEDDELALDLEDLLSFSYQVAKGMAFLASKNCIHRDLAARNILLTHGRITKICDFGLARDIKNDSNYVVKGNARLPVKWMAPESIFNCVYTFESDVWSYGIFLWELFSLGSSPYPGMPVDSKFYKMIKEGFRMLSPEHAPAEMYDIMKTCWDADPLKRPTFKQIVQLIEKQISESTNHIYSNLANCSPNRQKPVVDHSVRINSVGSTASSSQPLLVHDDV

| Compound | IC50 (MAPK9 (human)) [nM] | IC50 (MAP3K9 (human)) [nM] | IC50 (RIPK2 (human)) [nM] | IC50 (MAPK10 (human)) [nM] | IC50 (FLT1 (human)) [nM] | kinase still bound, per cent of control (BMPR1B (human); compound 1.0 µM) [%] | kinase still bound, per cent of control (DYRK2 (human); compound 1.0 µM) [%] | kinase still bound, per cent of control (STK38 (human); compound 1.0 µM) [%] | kinase still bound, per cent of control (LIMK2 (human); compound 1.0 µM) [%] | kinase still bound, per cent of control (SRC (human); compound 1.0 µM) [%] | kinase still bound, per cent of control (AURKA (human); compound 1.0 µM) [%] | kinase still bound, per cent of control (EPHA6 (human); compound 1.0 µM) [%] | kinase still bound, per cent of control (TLK2 (human); compound 1.0 µM) [%] | kinase still bound, per cent of control ([1]; compound 1.0 µM) [%] | IC50 (KIT (human)) [nM] | IC50 (PDGFRB (human)) [nM] | further results |
| --- | --- | --- | --- | --- | --- | --- | --- | --- | --- | --- | --- | --- | --- | --- | --- | --- | --- |
| CN(C)C/C=C/C(=O)Nc1cccc(C(=O)Nc2ccc(Nc3nccc(-c4c(-c5ccccc5)nn5ccccc45)n3)cc2)c1 | 23 | 45 | 42 | 8.4 | 18 | 47 | 100 | 97 | 100 | 18 | 28 | 32 | 100 | 0.55 | 1320 | 1030 | IC50 (EPHB2 (human)): 138 nM; IC50 (EPHB4 (human)): 121 nM; IC50 (ERBB4 (human)): 28.9 nM; IC50 (CSNK1E (human)): 82.9 nM; IC50 (DDR1 (human)): 56.1 nM; IC50 (CSNK1G2 (human)): 161 nM |
| Cc1ccc(NC(=O)c2ccc(NC(=O)/C=C/CN(C)C)cc2)cc1Nc1nccc(-c2cccnc2)n1 |  |  |  |  |  |  |  |  |  |  |  |  |  |  |  |  | kinase still bound, per cent of control (BMPR1B (human); compound 10.0 µM): 79%; kinase still bound, per cent of control (DYRK2 (human); compound 10.0 µM): 36%; kinase still bound, per cent of control (STK38 (human); compound 10.0 µM): 80%; kinase still bound, per cent of control (LIMK2 (human); compound 10.0 µM): 78%; kinase still bound, per cent of control (SRC (human); compound 10.0 µM): 78%; kinase still bound, per cent of control (AURKA (human); compound 10.0 µM): 100%; kinase still bound, per cent of control (EPHA6 (human); compound 10.0 µM): 100%; kinase still bound, per cent of control (TLK2 (human); compound 10.0 µM): 100%; kinase still bound, per cent of control ([1]; compound 10.0 µM): 45% |
| CN(C)C/C=C/C(=O)Nc1cccc(C(=O)Nc2ccc(Nc3nccc(/C(C#N)=C4\Nc5ccccc5S4)n3)cc2)c1 | 490 | 104 |  | 354 | 134 | 100 | 15 | 100 | 97 | 100 | 100 | 100 | 100 | 86 |  |  | IC50 [2]: 970 nM; IC50 (CaMK1 (human)): 900 nM; IC50 (AKT3 (human)): > 370 nM; IC50 (SLK (human)): 884 nM; IC50 (AKT1 (human)): > 370 nM |
| Cc1cc(NC(=O)c2cccc(NC(=O)/C=C/CN(C)C)c2)ccc1Nc1nccc(-c2cccnc2)n1 |  |  |  |  |  | 92 | 20 | 97 | 98 | 87 | 100 | 100 | 100 | 81 | > 10000 | > 10000 | IC50 (YES1 (human)): 1280 nM; IC50 (HIPK4 (human)): 8970 nM; IC50 (PRKX (human)): 7500 nM; IC50 (MKNK2 (human)): 238 nM; IC50 (CSF1R (human)): 287 nM |
| CN(C)C/C=C/C(=O)Nc1cccc(C(=O)Nc2ccc(Nc3nccc(-c4cccnc4)n3)cc2)c1 |  |  | 729 |  |  | 43 | 3.2 | 100 | 82 | 88 | 67 | 95 | 92 | 48 | 2410 |  | IC50 (IRAK1 (human) [3]): 175 nM; IC50 (NUAK1 (human)): 144 nM; IC50 (CLK2 (human)): 299 nM; IC50 (GCK (human)): 20500 nM; IC50 (MAPK15 (human)): 183 nM; IC50 (JAK2 JH1 JH2 (human)): 2510 nM; IC50 (CSNK2A1 (human)): 506 nM; IC50 (HIPK1 (human) [4]): 7610 nM; Kd (DYRK2 (human)): 120 nM; IC50 (IRAK1 (human) [5]): 14.1 nM; IC50 (HIPK1 (human) [6]): 5010 nM |
